Read-outs that look alike come from different tables or passages of the source.
System: BRD
Experiment: BRD reducing activity with added metal ions and inhibitors
Assay type: biochemical, Micrococcus luteus IFO 13867
[1] = addition level 1 mM, activity without addition = 100%
[2] = addition level 0.01 mM, activity without addition = 100%
[3] = addition level 0.1 mM, activity without addition = 100%

**Q.** With CCN1C(=O)C=CC1=O [NEM] as the compound, how does the Relative activity [1] read?
**A.** The Relative activity was 94%.

**Q.** For O=C(O)c1cc(SSc2ccc([N+](=O)[O-])c(C(=O)O)c2)ccc1[N+](=O)[O-] [DTNB], which Relative activity [2] is on record?
**A.** Its Relative activity is 93%.

**Q.** O=S(=O)([O-])[O-].[Cu+2] [CuSO4] was tested. Which Relative activity [3] did it give?
**A.** The Relative activity was 6%.

**Q.** What about the Relative activity [1] of the same compound?
**A.** Its Relative activity is 5%.

**Q.** And the “Inhibition of the enzyme” value (result in words)?
**A.** Its value is “inhibited”.

**Q.** O=S(=O)(F)Cc1ccccc1 [PMSF, phenylmethylsulfonyl fluoride] was tested. Which Relative activity [1] did it give?
**A.** The Relative activity was 89%.

**Q.** Which Relative activity does the source give for [Cl-].[Cl-].[Co+2] [CoCl2] here?
**A.** Its Relative activity is 99%.

**Q.** How did the Relative activity turn out when O=C(O)CI [Iodoacetic acid] was run?
**A.** Its Relative activity is 89%.

**Q.** For O=C(O)CN(CCN(CC(=O)O)CC(=O)O)CC(=O)O [EDTA], which Relative activity is on record?
**A.** The Relative activity was 88%.

**Q.** With O=S(=O)([O-])[O-].[Zn+2] [ZnSO4] as the compound, how does the Relative activity [1] read?
**A.** Its Relative activity is 99%.

**Q.** [Cl][Mn][Cl] [MnCl2] was tested. Which Relative activity [1] did it give?
**A.** The Relative activity was 89%.

**Q.** For O=c1c(O)c(-c2ccc(O)c(O)c2)oc2cc(O)cc(O)c12 [Quercetin], which Relative activity [2] is on record?
**A.** Its Relative activity is 94%.

**Q.** O=C(O)c1cc[c]([Hg][Cl])cc1 [PCMB] was tested. Which Relative activity [3] did it give?
**A.** Its Relative activity is 78%.

**Q.** c1cnc2c(c1)ccc1cccnc12 [1,10-Phenanthroline] was tested. Which Relative activity [1] did it give?
**A.** Its Relative activity is 90%.

**Q.** How did the Relative activity [1] turn out when O=S(=O)([O-])[O-].[Mg+2] [MgSO4] was run?
**A.** Its Relative activity is 99%.

**Q.** Which Relative activity (addition level 0.5 mM, activity without addition = 100%) does the source give for O=C1NC(=O)C(c2ccccc2)(c2ccccc2)N1 [5,5-Diphenylhydantoin] here?
**A.** The Relative activity was 99%.

From patent US7033808B2, “Carbonyl reductase, gene thereof and method of using the same” (Kaneka Corporation, priority 2000, dated 2006)
